# Test results: patent publication US11021457B2, “Class of isoindolone-imide ring-1,3-dione-2-ene compounds, composition and use thereof” (WIGEN BIOMEDICINE TECHNOLOGY (SHANGHAI) CO., LTD., priority 2017, dated 2021)
# Test system: RPMI-8226
# Experiment: Inhibition of tumor cell proliferation, CellTiter-Glo, RPMI-8226
# Format: cell-based
# Conditions: compound concentration 50 μM, 72 hours
# How it was run: (§1)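 Cells seeded at 2000-10000 per well, treated immediately (suspension) or after adherence (adherent) and cultured at 37° C, 5% CO2. Viability read by CellTiter-Glo at 72 h as blank-corrected survival rate vs control. Scored at 50 μM compound: survival 60-<90% +, >30-60% ++, ≤30% +++.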
row,Compound,Inhibitory activity against proliferation (cell survival rate) RPMI-8226
1,O=C1CCC(N2Cc3c(NC=C4C(=O)CC(c5cc6[nH]ccc6cc5Cl)CC4=O)cccc3C2=O)C(=O)N1 (stereo not shown) [Compound 151],+++ (survival rate (%)≤30)
2,O=C1CCC(N2Cc3c(NC=C4C(=O)CC(c5c(Cl)ccc6[nH]ccc56)CC4=O)cccc3C2=O)C(=O)N1 (stereo not shown) [Compound 152],+++ (survival rate (%)≤30)
3,COc1ccc(C2CC(=O)C(=CNc3cccc4c3CN(C3CCC(=O)NC3=O)C4=O)C(=O)C2)c(F)c1F (stereo not shown) [Compound 153],++ (30<survival rate (%)≤60)
4,O=C1CCC(N2Cc3c(NC=C4C(=O)CC(c5c(F)c(Cl)cc(Cl)c5Cl)CC4=O)cccc3C2=O)C(=O)N1 (stereo not shown) [Compound 154],+++ (survival rate (%)≤30)
5,O=C1CCC(N2Cc3c(NC=C4C(=O)CC(c5ccccc5N5CCOCC5)CC4=O)cccc3C2=O)C(=O)N1 (stereo not shown) [Compound 155],++ (30<survival rate (%)≤60)
6,CC(=O)Nc1ccccc1C1CC(=O)C(=CNc2cccc3c2CN(C2CCC(=O)NC2=O)C3=O)C(=O)C1 (stereo not shown) [Compound 156],+++ (survival rate (%)≤30)
7,O=C1CCC(N2Cc3c(NC(=O)CN4CCN(CCNC=C5C(=O)CC(c6c(Cl)ccc(C(F)(F)F)c6Cl)CC5=O)CC4)cccc3C2=O)C(=O)N1 (stereo not shown) [Compound 158],++ (30<survival rate (%)≤60)

# Test system: MDA-MB-453
# Experiment: Inhibition of tumor cell proliferation, CellTiter-Glo, MDA-MB-453
# Format: cell-based
# Conditions: compound concentration 50 μM, 72 hours
# How it was run: as §1
row,Compound,Inhibitory activity against proliferation (cell survival rate) MDA-MB-453
1,O=C1CCC(N2Cc3c(NC=C4C(=O)CC(c5cc6[nH]ccc6cc5Cl)CC4=O)cccc3C2=O)C(=O)N1 (stereo not shown) [Compound 151],+++ (survival rate (%)≤30)
2,O=C1CCC(N2Cc3c(NC=C4C(=O)CC(c5c(Cl)ccc6[nH]ccc56)CC4=O)cccc3C2=O)C(=O)N1 (stereo not shown) [Compound 152],++ (30<survival rate (%)≤60)
3,COc1ccc(C2CC(=O)C(=CNc3cccc4c3CN(C3CCC(=O)NC3=O)C4=O)C(=O)C2)c(F)c1F (stereo not shown) [Compound 153],+++ (survival rate (%)≤30)
4,O=C1CCC(N2Cc3c(NC=C4C(=O)CC(c5c(F)c(Cl)cc(Cl)c5Cl)CC4=O)cccc3C2=O)C(=O)N1 (stereo not shown) [Compound 154],+++ (survival rate (%)≤30)
5,O=C1CCC(N2Cc3c(NC=C4C(=O)CC(c5ccccc5N5CCOCC5)CC4=O)cccc3C2=O)C(=O)N1 (stereo not shown) [Compound 155],+++ (survival rate (%)≤30)
6,CC(=O)Nc1ccccc1C1CC(=O)C(=CNc2cccc3c2CN(C2CCC(=O)NC2=O)C3=O)C(=O)C1 (stereo not shown) [Compound 156],+++ (survival rate (%)≤30)
7,O=C1CCC(N2Cc3c(NC(=O)CN4CCN(CCNC=C5C(=O)CC(c6c(Cl)ccc(C(F)(F)F)c6Cl)CC5=O)CC4)cccc3C2=O)C(=O)N1 (stereo not shown) [Compound 158],+++ (survival rate (%)≤30)

# Test system: K562
# Experiment: Inhibition of tumor cell proliferation, CellTiter-Glo, K562
# Format: cell-based
# Conditions: compound concentration 50 μM, 72 hours
# How it was run: as §1
row,Compound,Inhibitory activity against proliferation (cell survival rate) K562
1,O=C1CCC(N2Cc3c(NC=C4C(=O)CC(c5cc6[nH]ccc6cc5Cl)CC4=O)cccc3C2=O)C(=O)N1 (stereo not shown) [Compound 151],+++ (survival rate (%)≤30)
2,O=C1CCC(N2Cc3c(NC=C4C(=O)CC(c5c(Cl)ccc6[nH]ccc56)CC4=O)cccc3C2=O)C(=O)N1 (stereo not shown) [Compound 152],+++ (survival rate (%)≤30)
3,COc1ccc(C2CC(=O)C(=CNc3cccc4c3CN(C3CCC(=O)NC3=O)C4=O)C(=O)C2)c(F)c1F (stereo not shown) [Compound 153],++ (30<survival rate (%)≤60)
4,O=C1CCC(N2Cc3c(NC=C4C(=O)CC(c5c(F)c(Cl)cc(Cl)c5Cl)CC4=O)cccc3C2=O)C(=O)N1 (stereo not shown) [Compound 154],+++ (survival rate (%)≤30)
5,O=C1CCC(N2Cc3c(NC=C4C(=O)CC(c5ccccc5N5CCOCC5)CC4=O)cccc3C2=O)C(=O)N1 (stereo not shown) [Compound 155],++ (30<survival rate (%)≤60)
6,CC(=O)Nc1ccccc1C1CC(=O)C(=CNc2cccc3c2CN(C2CCC(=O)NC2=O)C3=O)C(=O)C1 (stereo not shown) [Compound 156],+++ (survival rate (%)≤30)
7,O=C1CCC(N2Cc3c(NC(=O)CN4CCN(CCNC=C5C(=O)CC(c6c(Cl)ccc(C(F)(F)F)c6Cl)CC5=O)CC4)cccc3C2=O)C(=O)N1 (stereo not shown) [Compound 158],++ (30<survival rate (%)≤60)

# Test system: SU-DHL6
# Experiment: Inhibition of tumor cell proliferation, CellTiter-Glo, SU-DHL6
# Format: cell-based
# Conditions: compound concentration 50 μM, 72 hours
# How it was run: as §1
row,Compound,Inhibitory activity against proliferation (cell survival rate) SU-DHL6
1,O=C1CCC(N2Cc3c(NC=C4C(=O)CC(c5cc6[nH]ccc6cc5Cl)CC4=O)cccc3C2=O)C(=O)N1 (stereo not shown) [Compound 151],+++ (survival rate (%)≤30)
2,O=C1CCC(N2Cc3c(NC=C4C(=O)CC(c5c(Cl)ccc6[nH]ccc56)CC4=O)cccc3C2=O)C(=O)N1 (stereo not shown) [Compound 152],+++ (survival rate (%)≤30)
3,COc1ccc(C2CC(=O)C(=CNc3cccc4c3CN(C3CCC(=O)NC3=O)C4=O)C(=O)C2)c(F)c1F (stereo not shown) [Compound 153],+++ (survival rate (%)≤30)
4,O=C1CCC(N2Cc3c(NC=C4C(=O)CC(c5c(F)c(Cl)cc(Cl)c5Cl)CC4=O)cccc3C2=O)C(=O)N1 (stereo not shown) [Compound 154],+++ (survival rate (%)≤30)
5,O=C1CCC(N2Cc3c(NC=C4C(=O)CC(c5ccccc5N5CCOCC5)CC4=O)cccc3C2=O)C(=O)N1 (stereo not shown) [Compound 155],+++ (survival rate (%)≤30)
6,CC(=O)Nc1ccccc1C1CC(=O)C(=CNc2cccc3c2CN(C2CCC(=O)NC2=O)C3=O)C(=O)C1 (stereo not shown) [Compound 156],+++ (survival rate (%)≤30)
7,O=C1CCC(N2Cc3c(NC(=O)CN4CCN(CCNC=C5C(=O)CC(c6c(Cl)ccc(C(F)(F)F)c6Cl)CC5=O)CC4)cccc3C2=O)C(=O)N1 (stereo not shown) [Compound 158],+++ (survival rate (%)≤30)

# Target: LC3B (Homo sapiens (Human), UniProt Q9GZQ8)
# Experiment: Fluorescence polarization experiment targeting LC3B (GST-LC3B with FITC-labeled peptide)
# Conditions: GST-LC3B 180 nM, FITC-labeled peptide 18 nM, 25° C.
row,Compound,IC50 [nM]
1,O=C1CCC(N2Cc3c(NC=C4C(=O)CC(c5cc6[nH]ccc6cc5Cl)CC4=O)cccc3C2=O)C(=O)N1 (stereo not shown) [Compound 151],< 3000
2,O=C1CCC(N2Cc3c(NC=C4C(=O)CC(c5c(Cl)ccc6[nH]ccc56)CC4=O)cccc3C2=O)C(=O)N1 (stereo not shown) [Compound 152],< 3000
3,COc1ccc(C2CC(=O)C(=CNc3cccc4c3CN(C3CCC(=O)NC3=O)C4=O)C(=O)C2)c(F)c1F (stereo not shown) [Compound 153],< 3000
4,O=C1CCC(N2Cc3c(NC=C4C(=O)CC(c5c(F)c(Cl)cc(Cl)c5Cl)CC4=O)cccc3C2=O)C(=O)N1 (stereo not shown) [Compound 154],< 3000
5,O=C1CCC(N2Cc3c(NC=C4C(=O)CC(c5ccccc5N5CCOCC5)CC4=O)cccc3C2=O)C(=O)N1 (stereo not shown) [Compound 155],< 3000
6,CC(=O)Nc1ccccc1C1CC(=O)C(=CNc2cccc3c2CN(C2CCC(=O)NC2=O)C3=O)C(=O)C1 (stereo not shown) [Compound 156],< 3000
7,O=C1CCC(N2Cc3c(NC(=O)CN4CCN(CCNC=C5C(=O)CC(c6c(Cl)ccc(C(F)(F)F)c6Cl)CC5=O)CC4)cccc3C2=O)C(=O)N1 (stereo not shown) [Compound 158],< 3000

# Test system: BxPC-3
# Experiment: Inhibition of tumor cell proliferation, CellTiter-Glo, BxPC-3
# Format: cell-based
# Conditions: compound concentration 50 μM, 72 hours
# How it was run: as §1
row,Compound,Inhibitory activity against proliferation (cell survival rate) BxPC-3
1,O=C1CCC(N2Cc3c(NC=C4C(=O)CC(c5cc6[nH]ccc6cc5Cl)CC4=O)cccc3C2=O)C(=O)N1 (stereo not shown) [Compound 151],+ (60≤survival rate (%)<90)
2,O=C1CCC(N2Cc3c(NC=C4C(=O)CC(c5c(Cl)ccc6[nH]ccc56)CC4=O)cccc3C2=O)C(=O)N1 (stereo not shown) [Compound 152],++ (30<survival rate (%)≤60)
3,COc1ccc(C2CC(=O)C(=CNc3cccc4c3CN(C3CCC(=O)NC3=O)C4=O)C(=O)C2)c(F)c1F (stereo not shown) [Compound 153],+ (60≤survival rate (%)<90)
4,O=C1CCC(N2Cc3c(NC=C4C(=O)CC(c5c(F)c(Cl)cc(Cl)c5Cl)CC4=O)cccc3C2=O)C(=O)N1 (stereo not shown) [Compound 154],+ (60≤survival rate (%)<90)
5,O=C1CCC(N2Cc3c(NC=C4C(=O)CC(c5ccccc5N5CCOCC5)CC4=O)cccc3C2=O)C(=O)N1 (stereo not shown) [Compound 155],+ (60≤survival rate (%)<90)
6,CC(=O)Nc1ccccc1C1CC(=O)C(=CNc2cccc3c2CN(C2CCC(=O)NC2=O)C3=O)C(=O)C1 (stereo not shown) [Compound 156],+ (60≤survival rate (%)<90)
7,O=C1CCC(N2Cc3c(NC(=O)CN4CCN(CCNC=C5C(=O)CC(c6c(Cl)ccc(C(F)(F)F)c6Cl)CC5=O)CC4)cccc3C2=O)C(=O)N1 (stereo not shown) [Compound 158],+ (60≤survival rate (%)<90)

# Test system: A549
# Experiment: Inhibition of tumor cell proliferation, CellTiter-Glo, A549
# Format: cell-based
# Conditions: compound concentration 50 μM, 72 hours
# How it was run: as §1
row,Compound,Inhibitory activity against proliferation (cell survival rate) A549
1,O=C1CCC(N2Cc3c(NC=C4C(=O)CC(c5cc6[nH]ccc6cc5Cl)CC4=O)cccc3C2=O)C(=O)N1 (stereo not shown) [Compound 151],+ (60≤survival rate (%)<90)
2,O=C1CCC(N2Cc3c(NC=C4C(=O)CC(c5c(Cl)ccc6[nH]ccc56)CC4=O)cccc3C2=O)C(=O)N1 (stereo not shown) [Compound 152],+++ (survival rate (%)≤30)
3,COc1ccc(C2CC(=O)C(=CNc3cccc4c3CN(C3CCC(=O)NC3=O)C4=O)C(=O)C2)c(F)c1F (stereo not shown) [Compound 153],+++ (survival rate (%)≤30)
4,O=C1CCC(N2Cc3c(NC=C4C(=O)CC(c5c(F)c(Cl)cc(Cl)c5Cl)CC4=O)cccc3C2=O)C(=O)N1 (stereo not shown) [Compound 154],+ (60≤survival rate (%)<90)
5,O=C1CCC(N2Cc3c(NC=C4C(=O)CC(c5ccccc5N5CCOCC5)CC4=O)cccc3C2=O)C(=O)N1 (stereo not shown) [Compound 155],+++ (survival rate (%)≤30)
6,CC(=O)Nc1ccccc1C1CC(=O)C(=CNc2cccc3c2CN(C2CCC(=O)NC2=O)C3=O)C(=O)C1 (stereo not shown) [Compound 156],+ (60≤survival rate (%)<90)
7,O=C1CCC(N2Cc3c(NC(=O)CN4CCN(CCNC=C5C(=O)CC(c6c(Cl)ccc(C(F)(F)F)c6Cl)CC5=O)CC4)cccc3C2=O)C(=O)N1 (stereo not shown) [Compound 158],+++ (survival rate (%)≤30)
